Test results taken from patent US20250084040A1, “SUBSTITUTED HETEROCYCLES AS c-MYC TARGETING AGENTS” (Northwestern University, priority 2018, published 2025).

Legend:
[1] = system: NCI 60 cell panel; experiment: NCI 60 Cell One-Dose Screen; format: cell-based, human; conditions: 1.00E−5 Molar
Procedure: General Description. As of early 2007 all compounds submitted to the NCI 60 Cell screen are tested initially at a single high dose (10^-5 M) in the full NCI 60 cell panel. Only compounds which satisfy pre-determined threshold inhibition criteria in a minimum number of cell lines will progress to the full 5-dose assay. The threshold inhibition criteria for progression to the 5-dose screen was selected to efficiently capture compounds with anti-proliferative activity based on careful analysis of historical DTP screening data. The threshold criteria may be updated as additional data becomes available.
Interpretation of One-Dose Data. The One-dose data will be reported as a mean graph of the percent growth of treated cells and will be similar in appearance to mean graphs from the 5-dose assay. The number reported for the One-dose assay is growth relative to the no-drug control, and relative to the time zero number of cells. This allows detection of both growth inhibition (values between 0 and 100) and lethality (values less than 0). This is the same as for the 5-dose assay, described below. For example, a value of 100 means no growth inhibition. A value of 40 would mean 60% growth inhibition. A value of 0 means no net growth over the course of the experiment. A value of −40 would mean 40% lethality. A value of −100 means all cells are dead. Information from the One-dose mean graph is available for COMPARE analysis.
The human tumor cell lines of the cancer screening panel are grown in RPMI 1640 medium containing 5% fetal bovine serum and 2 mM L-glutamine. For a typical screening experiment, cells are inoculated into 96 well microtiter plates in 100 μL at plating densities ranging from 5,000 to 40,000 cells/well depending on the doubling time of individual cell lines. After cell inoculation, the microtiter plates are incubated at […], 5% CO2, 95% air and 100% relative humidity for 24 h prior to addition of experimental drugs.
After 24 h, two plates of each cell line are fixed in situ with TCA, to represent a measurement of the cell population for each cell line at the time of drug addition (Tz). Experimental drugs are solubilized in dimethyl sulfoxide at 400-fold the desired final maximum test concentration and stored frozen prior to use. At the time of drug addition, an aliquot of frozen concentrate is thawed and diluted to twice the desired final maximum test concentration with complete medium containing 50 µg/ml gentamicin. Additional four, 10-fold or ½ log serial dilutions are made to provide a total of five drug concentrations plus control. Aliquots of 100 μl of these different drug dilutions are added to the appropriate microtiter wells already containing 100 μl of medium, resulting in the required final drug concentrations.
Following drug addition, the plates are incubated for an additional 48 h at 37° C., 5% CO2, 95% air, and 100% relative humidity. For adherent cells, the assay is terminated by the addition of cold TCA. Cells are fixed in situ by the gentle addition of 50 μl of cold 50% (w/v) TCA (final concentration, 10% TCA) and incubated for 60 minutes at 4° C. The supernatant is discarded, and the plates are washed five times with tap water and air dried. Sulforhodamine B (SRB) solution (100 μl) at 0.4% (w/v) in 1% acetic acid is added to each well, and plates are incubated for 10 minutes at room temperature. After staining, unbound dye is removed by washing five times with 1% acetic acid and the plates are air dried. Bound stain is subsequently solubilized with 10 mM trizma base, and the absorbance is read on an automated plate reader at a wavelength of 515 nm. For suspension cells, the methodology is the same except that the assay is terminated by fixing settled cells at the bottom of the wells by gently adding 50 μl of 80% TCA (final concentration, 16% TCA). […]

[2] = system: wild type and MYC knockout rat fibroblasts; experiment: Growth inhibition of MYC wild type versus MYC knockout rat fibroblasts; format: cell-based
Source text: We tested the top 13 active compounds in the first screen assay. […] More than half of the tested compounds show better growth inhibitory effect on MYC WT compared to MYC KO cells.

[3] = In vitro metabolism, mouse liver microsomes; format: in vitro ADME; conditions: % remaining of compound after 60 min treatment with mouse liver microsomes
Procedure: In vitro metabolism of NUCC-176242 and NUCC-176248 were tested using mouse liver microsomes and a mouse S9 fraction. (See FIG. 9).

CC(C)CCOc1ccc(-c2cc(C(F)(F)F)n[nH]2)c(O)c1-c1cncc(C#N)c1 [NSC: D-804956/1]
Growth Percent ([1]; 786-0 (Renal Cancer)): 17.07%
Growth Percent ([1]; A498 (Renal Cancer)): −25.54%
Growth Percent ([1]; A549/ATCC (Non-Small Cell Lung Cancer)): 10.39%
Growth Percent ([1]; ACHN (Renal Cancer)): 8.84%
Growth Percent ([1]; BT-549 (Breast Cancer)): 6.56%
Growth Percent ([1]; CAKI-1 (Renal Cancer)): 9.47%
Growth Percent ([1]; CCRF-CEM (Leukemia)): 6.67%
Growth Percent ([1]; COLO 205 (Colon Cancer)): 49.05%
Growth Percent ([1]; DU-145 (Prostate Cancer)): 17.95%
Growth Percent, Delta ([1]; Delta of the mean graph): 40.88%
Growth Percent ([1]; EKVX (Non-Small Cell Lung Cancer)): 3.52%
Growth Percent ([1]; HCC-2998 (Colon Cancer)): 16.23%
Growth Percent ([1]; HCT-15 (Colon Cancer)): 11.96%
Growth Percent ([1]; HCT-116 (Colon Cancer)): 2.41%
Growth Percent ([1]; HL-60(TB) (Leukemia)): 3.64%
Growth Percent ([1]; HOP-62 (Non-Small Cell Lung Cancer)): 5.79%
Growth Percent ([1]; HOP-92 (Non-Small Cell Lung Cancer)): −27.95%
Growth Percent ([1]; HS 578T (Breast Cancer)): 17.96%
Growth Percent ([1]; HT29 (Colon Cancer)): 48.91%
Growth Percent ([1]; IGROV1 (Ovarian Cancer)): 46.89%
Growth Percent ([1]; KM12 (Colon Cancer)): 7.94%
Growth Percent ([1]; LOX IMVI (Melanoma)): 5.15%
Growth Percent ([1]; M14 (Melanoma)): 22.46%
Growth Percent ([1]; MALME-3M (Melanoma)): −0.80%
Growth Percent ([1]; MCF7 (Breast Cancer)): 2.95%
Growth Percent ([1]; MDA-MB-231/ATCC (Breast Cancer)): 1.43%
Growth Percent ([1]; MDA-MB-435 (Melanoma)): 7.91%
Growth Percent ([1]; MDA-MB-468 (Breast Cancer)): −26.3%
Growth Percent ([1]; MOLT-4 (Leukemia)): 22.96%
Growth Percent, Mean ([1]; Mean over the cell panel): 9.05%
Growth Percent ([1]; NCI-H23 (Non-Small Cell Lung Cancer)): −0.16%
Growth Percent ([1]; NCI-H322M (Non-Small Cell Lung Cancer)): 12.44%
Growth Percent ([1]; NCI-H460 (Non-Small Cell Lung Cancer)): 3.48%
Growth Percent ([1]; NCI-H522 (Non-Small Cell Lung Cancer)): −6.89%
Growth Percent ([1]; NCI/ADR-RES (Ovarian Cancer)): 2.45%
Growth Percent ([1]; OVCAR-3 (Ovarian Cancer)): 2.95%
Growth Percent ([1]; OVCAR-4 (Ovarian Cancer)): 20.48%
Growth Percent ([1]; OVCAR-5 (Ovarian Cancer)): 36.89%
Growth Percent ([1]; OVCAR-8 (Ovarian Cancer)): 12.48%
Growth Percent ([1]; PC-3 (Prostate Cancer)): 1.74%
Growth Percent ([1]; RPMI-8226 (Leukemia)): −31.83%
Growth Percent, Range ([1]; Range over the cell panel): 80.88%
Growth Percent ([1]; SF-268 (CNS Cancer)): 21.93%
Growth Percent ([1]; SF-295 (CNS Cancer)): 0.83%
Growth Percent ([1]; SF-539 (CNS Cancer)): 25.17%
Growth Percent ([1]; SK-MEL-2 (Melanoma)): −13.82%
Growth Percent ([1]; SK-MEL-28 (Melanoma)): 33.67%
Growth Percent ([1]; SK-OV-3 (Ovarian Cancer)): −7.94%
Growth Percent ([1]; SN12C (Renal Cancer)): 3.81%
Growth Percent ([1]; SNB-19 (CNS Cancer)): 13.09%
Growth Percent ([1]; SNB-75 (CNS Cancer)): 30.14%
Growth Percent ([1]; SR (Leukemia)): 33.69%
Growth Percent ([1]; SW-620 (Colon Cancer)): 14.25%
Growth Percent ([1]; T-47D (Breast Cancer)): 2.83%
Growth Percent ([1]; TK-10 (Renal Cancer)): 11.38%
Growth Percent ([1]; U251 (CNS Cancer)): 2.85%
Growth Percent ([1]; UACC-62 (Melanoma)): 17.46%
Growth Percent ([1]; UACC-257 (Melanoma)): −14.05%
Growth Percent ([1]; UO-31 (Renal Cancer)): 3.89%

CCc1ccc(Oc2c(-c3ccc(OCc4ccc(Cl)cc4)cc3O)nn(C)c2C(F)(F)F)cc1 [NUCC-0176248]
selectivity of growth inhibition, MYC WT compared to MYC KO cells [2]: high specificity

Oc1cc(OCc2ccc(Cl)cc2)ccc1-c1n[nH]c(C(F)(F)F)c1Oc1ccccc1Cl [NUCC-0196342]
MLM % at 60 min [3]: 87.4%

Cn1nc(C(F)(F)F)cc1-c1ccc(OCc2ccc(Cl)cc2)c(-c2cc(C(F)(F)F)cc(C(F)(F)F)c2)c1O [NUCC-0196361]
MLM % at 60 min [3]: 72.9%

Oc1c(-c2cc(C(F)(F)F)[nH]n2)ccc(OCc2ccc(Cl)cc2)c1-c1ccccc1Cl [NUCC-0196363]
MLM % at 60 min [3]: 88.6%

COc1cccc(-c2c(-c3ccc(OCc4ccc(Cl)cc4)cc3O)n[nH]c2C(F)(F)F)c1 [NUCC-0198309]
MLM % at 60 min [3]: 74%

Cn1nc(C(F)(F)F)cc1-c1ccc(OCc2ccc(Cl)cc2)c(-c2cccc(C#N)c2)c1O [NUCC-0198399]
MLM % at 60 min [3]: 80.3%

CCc1c(OCc2ccc(Cl)cc2)ccc(-c2cc(C(F)(F)F)n[nH]2)c1O [NUCC-0200739]
MLM % at 60 min [3]: 46.4%

CCOC(=O)c1cc(-c2ccc(OCc3ccc(Cl)cc3)c(-c3cc(C(F)(F)F)cc(C(F)(F)F)c3)c2O)n[nH]1 [NUCC-0200972]
MLM % at 60 min [3]: 60.3%

Cn1nc(C(F)(F)F)cc1-c1ccc(OCc2ccc(Cl)cc2)cc1C=O [NUCC-0200976]
MLM % at 60 min [3]: 21.8%

Oc1c(-c2cc(C(F)(F)F)n[nH]2)ccc(OCCN2CCCC2)c1-c1cc(C(F)(F)F)cc(C(F)(F)F)c1 [NUCC-0201032]
MLM % at 60 min [3]: 30.5%

CCCCCCOc1ccc(-c2cc(C(F)(F)F)n[nH]2)c(O)c1-c1cc(C(F)(F)F)cc(C(F)(F)F)c1 [NUCC-0201196]
MLM % at 60 min [3]: 66.6%

CCCCCCOc1ccc(-c2cc(C(F)(F)F)nn2C)c(O)c1-c1cncc(C#N)c1 [NUCC-0201207]
MLM % at 60 min [3]: 52.7%

CCCCOc1ccc(-c2cc(C(F)(F)F)n(C)n2)c(O)c1-c1cncc(C(F)(F)F)c1 [NUCC-0201209]
MLM % at 60 min [3]: 10.3%

Oc1c(-c2cc(C(F)(F)F)[nH]n2)ccc(Oc2ccc(Cl)cc2)c1-c1cc(C(F)(F)F)cc(C(F)(F)F)c1 [NUCC-0201223]
MLM % at 60 min [3]: 75.8%
